Measured values reported in ChEMBL document CHEMBL1201862, “PubChem BioAssay data set” (2004).
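A five-concentration, 48-hour dose response in 96-well plates underlies each endpoint, interpolated linearly between surrounding concentrations. GI50 = concentration required for 50% inhibition of growth.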 Calls of active or inactive are those of the source. Rule as the data show it: active = GI50 up to about 1.1 µM and inactive = higher.

Key:
Assay in all cases: growth of human tumour cells (NCI), 48 h
786-0 = system: 786-0
A498 = system: A498
A549 = system: A549
ACHN = system: ACHN
BT-549 = system: BT-549
CAKI-1 = system: CAKI-1
CCRF-CEM = system: CCRF-CEM
COLO 205 = system: COLO 205
DU-145 = system: DU-145
EKVX = system: EKVX
HCC 2998 = system: HCC 2998
HCT-116 = system: HCT-116
HCT-15 = system: HCT-15
HL-60 = system: HL-60
HOP-62 = system: HOP-62
HOP-92 = system: HOP-92
HT-29 = system: HT-29
Hs-578T = system: Hs-578T
IGROV-1 = system: IGROV-1
K562 = system: K562
KM12 = system: KM12
LOX IMVI = system: LOX IMVI
MCF7 = system: MCF7
MDA-MB-231 = system: MDA-MB-231
MDA-MB-435 = system: MDA-MB-435
MDA-N = system: MDA-N
MOLT-4 = system: MOLT-4
Malme-3M = system: Malme-3M
NCI-H226 = system: NCI-H226
NCI-H23 = system: NCI-H23
NCI-H460 = system: NCI-H460
NCI-H522 = system: NCI-H522
NCI/ADR-RES = system: NCI/ADR-RES
OVCAR-3 = system: OVCAR-3
OVCAR-4 = system: OVCAR-4
OVCAR-5 = system: OVCAR-5
OVCAR-8 = system: OVCAR-8
PC-3 = system: PC-3
RPMI-8226 = system: RPMI-8226
RXF 393 = system: RXF 393
SF-268 = system: SF-268
SF-295 = system: SF-295
SF-539 = system: SF-539
SK-MEL-28 = system: SK-MEL-28
SK-MEL-2 = system: SK-MEL-2
SK-MEL-5 = system: SK-MEL-5
SN12C = system: SN12C
SNB-75 = system: SNB-75
SR = system: SR
SW-620 = system: SW-620
T47D = system: T47D
TK-10 = system: TK-10
U-251 = system: U-251
UACC-257 = system: UACC-257
UACC-62 = system: UACC-62
UO-31 = system: UO-31
M14 = system: M14
SNB-19 = system: SNB-19

Measured: GI50

CC(=O)O[C@@H](c1nccn1Cc1ccccc1)[C@H]1OC(C)(C)O[C@@H]1[C@H]1COC(C)(C)O1
> 100 µM: HCT-15
inactive: 786-0 > 100 µM | A498 > 100 µM | A549 > 100 µM | ACHN > 100 µM | BT-549 > 100 µM | CAKI-1 > 100 µM | CCRF-CEM > 100 µM | COLO 205 > 100 µM | DU-145 > 100 µM | EKVX > 100 µM | HCC 2998 > 100 µM | HCT-116 > 100 µM | HL-60 > 100 µM | HOP-62 > 100 µM | HOP-92 > 100 µM | HT-29 > 100 µM | Hs-578T > 100 µM | IGROV-1 > 100 µM | K562 > 100 µM | KM12 > 100 µM | LOX IMVI > 100 µM | MCF7 > 100 µM | MDA-MB-231 > 100 µM | MDA-MB-435 > 100 µM | MDA-N > 100 µM | MOLT-4 > 100 µM | Malme-3M > 100 µM | NCI-H226 > 100 µM | NCI-H23 > 100 µM | NCI-H460 > 100 µM | NCI-H522 > 100 µM | NCI/ADR-RES > 100 µM | OVCAR-3 > 100 µM | OVCAR-4 > 100 µM | OVCAR-5 > 100 µM | OVCAR-8 > 100 µM | PC-3 > 100 µM | RPMI-8226 > 100 µM | RXF 393 > 100 µM | SF-268 > 100 µM | SF-295 > 100 µM | SF-539 > 100 µM | SK-MEL-28 > 100 µM | SK-MEL-2 > 100 µM | SK-MEL-5 > 100 µM | SN12C > 100 µM | SNB-75 > 100 µM | SR > 10 µM | SW-620 > 100 µM | T47D > 10 µM | TK-10 > 100 µM | U-251 > 100 µM | UACC-257 > 100 µM | UACC-62 > 100 µM | UO-31 > 100 µM

C/C=C/C=C/C1=NN(c2cccc(S(=O)(=O)O)c2)C2(C1)SCC(=O)N2c1nc2ccccc2s1 (stereo unspecified)
inactive: 786-0 19.8 µM | A498 50.5 µM | A549 86.3 µM | ACHN 76.7 µM | BT-549 35.3 µM | CAKI-1 86.3 µM | CCRF-CEM 24.2 µM | COLO 205 > 100 µM | DU-145 34.5 µM | EKVX 55.8 µM | HCC 2998 > 100 µM | HCT-116 67 µM | HL-60 > 100 µM | HOP-92 26.2 µM | HT-29 > 100 µM | Hs-578T > 100 µM | IGROV-1 19.7 µM | K562 44 µM | KM12 54.6 µM | LOX IMVI 19.6 µM | M14 > 100 µM | MCF7 47.4 µM | MDA-MB-231 56.2 µM | MDA-MB-435 36.1 µM | MDA-N 61 µM | MOLT-4 29.4 µM | Malme-3M > 100 µM | NCI-H226 30.8 µM | NCI-H23 42.5 µM | NCI-H460 45.5 µM | NCI-H522 33.1 µM | NCI/ADR-RES 51.2 µM | OVCAR-4 93.3 µM | OVCAR-5 > 100 µM | OVCAR-8 36.2 µM | PC-3 62.2 µM | RPMI-8226 29.9 µM | RXF 393 > 100 µM | SF-268 89.7 µM | SF-539 45.9 µM | SK-MEL-28 > 100 µM | SK-MEL-2 37.8 µM | SK-MEL-5 85.5 µM | SN12C 41.2 µM | SNB-19 47 µM | SNB-75 68.5 µM | SR 25.1 µM | SW-620 72.1 µM | T47D 24.6 µM | TK-10 47.8 µM | U-251 37.9 µM | UACC-257 > 100 µM | UACC-62 40.7 µM | UO-31 47.8 µM
69.2 µM: HCT-15
